The supplement of paper PMC10307832

Columns and labels:
Test in all cases: relative viability (nuclei count vs DMSO), 5 days (fraction); higher = more cells survive
[1] = compound: CN1CCC(CNc2ccc3ncc(-c4cccc(OC(F)(F)F)c4)n3n2)CC1 [SGI-1776] + CC1(C)CCC(c2ccc(Cl)cc2)=C(CN2CCN(c3ccc(C(=O)NS(=O)(=O)c4ccc(N[C@H](CCN5CCOCC5)CSc5ccccc5)c(S(=O)(=O)C(F)(F)F)c4)cc3)CC2)C1 [Navitoclax] (partner 0.5 µM)
Outline: (§1)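 Values are medians from duplicate plates. Each reflects relative viability, defined as the nuclei count of treated wells over that of vehicle wells. Lung cancer cell lines in 1536-well plates were pin-tool dosed one day after seeding with one drug alone or with a fixed anchor-drug dose plus five library-drug doses (not always all listed) in √10 steps, then fixed, stained and imaged at 4× after 5 days.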

[2] = compound: C1COCCN1C2=NC(=NC3=C2OC4=C3C=CC=N4)C5=CC(=CC=C5)NC(=O)C6=CN=C(C=C6)N + Cc1nc(Nc2ncc(C(=O)Nc3c(C)cccc3Cl)s2)cc(N2CCN(CCO)CC2)n1 [Dasatinib] (partner 0.075 µM)
Outline: as §1

[3] = compound: CN1CCC(CNc2ccc3ncc(-c4cccc(OC(F)(F)F)c4)n3n2)CC1 [SGI-1776] + CC(=O)c1c(C)c2cnc(Nc3ccc(N4CCNCC4)cn3)nc2n(C2CCCC2)c1=O [Palbociclib] (partner 0.5 µM)
Outline: as §1

[4] = compound: Nc1ccccc1NC(=O)c1ccc(CNC(=O)OCc2cccnc2)cc1 [Entinostat] + NC(=O)Nc1cc(-c2cccc(F)c2)sc1C(=O)N[C@H]1CCCNC1 [AZD7762] (partner 0.2 µM)
Outline: as §1

Cell Line	relative viability ([1]; first compound 0.08 µM)	relative viability ([1]; first compound 0.8 µM)	relative viability ([1]; first compound 2.53 µM)	relative viability ([1]; first compound 8 µM)	relative viability ([2]; first compound 0.02 µM)	relative viability ([2]; first compound 0.06325 µM)	relative viability ([2]; first compound 0.2 µM)	relative viability ([2]; first compound 0.6325 µM)	relative viability ([2]; first compound 2 µM)	relative viability ([3]; first compound 0.08 µM)	relative viability ([3]; first compound 0.8 µM)	relative viability ([3]; first compound 2.53 µM)	relative viability ([3]; first compound 8 µM)	relative viability ([4]; first compound 0.02 µM)	relative viability ([4]; first compound 0.06325 µM)	relative viability ([4]; first compound 0.2 µM)	relative viability ([4]; first compound 0.6325 µM)	relative viability ([4]; first compound 2 µM)
A549	1.24	1.29	1.27	0.77	–	–	–	–	–	–	–	–	–	–	–	–	–	–
ABC-1	–	–	–	–	0.586	0.612	0.523	0.587	0.54	0.661	0.98	0.501	0.431	0.803	0.727	0.951	0.86	0.59
COR-L23	1.13	1.03	1.11	0.731	0.505	0.604	0.451	0.472	0.327	0.282	0.309	0.32	0.247	–	–	–	–	–
COR-L 105	0.799	0.86	1	0.546	0.307	0.363	0.22	0.308	0.284	0.477	0.388	0.396	0.355	–	–	–	–	–
Calu-6	0.922	0.909	0.856	0.626	–	–	–	–	–	–	–	–	–	–	–	–	–	–
EBC-1	0.458	0.292	0.289	0.144	–	–	–	–	–	–	–	–	–	–	–	–	–	–
IA-LM	0.951	0.754	0.941	0.905	–	–	–	–	–	–	–	–	–	–	–	–	–	–
LCLC-103H	–	–	–	–	0.433	0.468	0.479	0.514	0.344	0.524	0.456	0.475	0.401	0.818	0.866	0.719	0.474	0.432
NCI-H358	–	–	–	–	–	0.134	0.109	0.152	0.15	0.112	0.141	0.129	0.113	0.55	0.69	0.6	0.408	0.192
NCI-H520	1.14	1.25	1.13	1.08	0.227	0.188	0.219	0.177	0.131	0.267	0.219	0.191	0.16	–	–	–	–	–
NCI-H522	–	–	–	–	0.936	0.983	0.899	0.877	0.837	1.22	1.25	0.953	0.731	0.779	0.846	0.85	1.07	0.796
NCI-H596	0.982	1.05	0.995	0.939	0.607	0.621	0.545	0.739	0.5	–	–	–	–	1.19	1.11	1.14	0.817	0.829
NCI-H650	–	–	–	–	0.475	0.453	0.416	0.442	0.385	0.39	0.349	0.312	0.33	1.12	0.95	1.08	0.823	0.325
NCI-H661	–	–	–	–	0.88	0.853	0.688	0.736	0.64	0.415	0.399	0.412	0.338	–	–	–	–	–
NCI-H1299	1.04	1.06	0.964	1.04	–	–	–	–	–	–	–	–	–	–	–	–	–	–
NCI-H1563	–	–	–	–	0.505	0.453	0.437	0.461	0.578	–	–	–	–	–	–	–	–	–
NCI-H1623	–	–	–	–	0.516	0.469	0.516	0.527	0.498	–	–	–	–	–	–	–	–	–
NCI-H1648	–	–	–	–	–	–	–	–	–	0.286	0.327	0.226	0.319	0.789	0.715	0.725	0.566	0.485
NCI-H1650	1.22	1.21	0.981	0.762	0.336	0.29	0.287	0.278	0.248	0.373	0.354	0.344	0.228	–	–	–	–	–
NCI-H1703	1.22	0.914	0.457	0.178	–	–	–	–	–	–	–	–	–	0.109	0.153	0.129	0.116	0.106
NCI-H2009	1.15	1.18	1.19	1.08	0.245	0.278	0.215	0.219	0.215	0.251	0.151	0.166	0.174	–	–	–	–	–
NCI-H2023	1.04	1.04	0.998	0.979	0.632	0.648	0.47	0.484	0.251	0.38	0.396	0.354	0.266	–	–	–	–	–
NCI-H2228	0.843	0.817	0.658	0.51	0.647	0.487	0.439	0.33	0.246	0.787	1.1	0.715	0.537	–	–	–	–	–
NCI-H2342	–	–	–	–	0.296	0.306	0.283	0.327	0.301	0.609	0.539	0.55	0.535	0.514	0.569	0.507	0.428	0.398
SK-LU-1	1.27	1.35	1.01	0.468	0.153	0.188	0.168	0.176	0.16	0.425	0.306	0.415	0.371	–	–	–	–	–
SK-MES-1	1.35	1.23	1.27	1.15	0.342	0.406	0.259	0.239	0.244	0.379	0.315	0.327	0.241	–	–	–	–	–
SW 900	–	–	–	–	0.54	0.538	0.613	0.518	0.448	0.599	0.633	0.571	0.395	0.723	0.699	0.726	0.488	0.268
